Here are results for two compounds from patent US12558363B2, “Compositions for clinical complications associated to devices implanted in the urinary tract” (Devicare SL, priority 2019, dated 2026).

“And” between values parts separate entries of the source, which are not always exact repeats. Identical values can stand only once. “Also recorded” adds a separate entry of the source.

In one assay the test system is Mucin. Put plainly: Conditioning film generation: accumulated protein on medical device fragment in continuous flow artificial urine system (Lowry). The settings on record: for Quantity of accumulated protein (Mucin), Experiment 1 / Quantity of accumulated protein (Mucin), Experiment 2: 48 hours irrigation of Tygon fragment, pH 6.5; for Quantity of accumulated protein (Mucin), Experiment 1 / Quantity of accumulated protein (Mucin), Experiment 2 / Quantity of accumulated protein (Mucin), Average: NAC 20 mg/L and/or phytate 2 ppm; for Quantity of accumulated protein (Mucin), Average: average of Experiments 1 and 2, 48 hours; for Reduction in the precipitation of protein, compounds tested individually: phytate 2 ppm or NAC 20 mg/L alone, compared with the combination.

Assay [1] is described as follows: Struvite crystal formation/adhesion on catheter portions in artificial urine. The settings on record: for Struvite crystals formation ratio (crystals without phytate divided by crystals with phytate) / # struvite crystals with phytate (2 ppm): phytate 2 ppm; for # struvite crystals with phytate (2 ppm): pH 7.2, 37° C., not washed catheter portion.
Assay [2] deals with Pseudomonas aeruginosa PAO1. It is filed as cell-based. To be noted: 24 h.

For the compound `CC(=O)N[C@@H](CS)C(=O)O` [NAC, N-acetylcysteine, reference compound], in the assay on Mucin, the “Quantity of accumulated protein (Mucin), Experiment 1” value is given as 30.0 mg/L; the “Quantity of accumulated protein (Mucin), Experiment 2” value was determined as 66.5 mg/L; the “Quantity of accumulated protein (Mucin), Average” value was 48.3 mg/L; the “Reduction in the precipitation of protein, compounds tested individually” value was “a reduction in the precipitation was observed but of less intensity”.
On to `O=P(O)(O)O[C@H]1[C@H](OP(=O)(O)O)[C@@H](OP(=O)(O)O)[C@H](OP(=O)(O)O)[C@@H](OP(=O)(O)O)[C@H]1OP(=O)(O)O` [phytate, myo-inositol-hexaphosphate], for which the “Struvite crystals adhered in catheters” value in assay [1] (9.28 g/L NH4+, 1 ppm phytate (FIG. 3B)) was 2 crystals. Further, in assay [1] (18.56 g/L NH4+, 1 ppm phytate (FIG. 3D)), the “Struvite crystals adhered in catheters” value worked out at 5 crystals. For the same compound, in assay [1] (24 h), the “Size of struvite crystals formed (electron microscopy)” value is recorded as “smaller than the crystals formed in absence of phytate”. In assay [1] (time of reaction 12 hours), the “Struvite crystals formation ratio (crystals without phytate divided by crystals with phytate)” value is given as 1.45 and the “# struvite crystals with phytate (2 ppm)” value was 20. Further, in assay [1] (time of reaction 24 hours), the “Struvite crystals formation ratio (crystals without phytate divided by crystals with phytate)” value is 3.85 and 2.4; the “# struvite crystals with phytate (2 ppm)” value is 6.5 and 5. Besides, the “Number of adhered bacteria in the surface of incubated catheters” value in assay [2] was “significative decrease; also recorded: lower”. In the assay with Mucin, the “Quantity of accumulated protein (Mucin), Experiment 1” value is recorded as 33.0 mg/L; the “Quantity of accumulated protein (Mucin), Experiment 2” value was found to be 57.5 mg/L; the “Quantity of accumulated protein (Mucin), Average” value came to 45.3 mg/L; the “Reduction in the precipitation of protein, compounds tested individually” value is “a reduction in the precipitation was observed but of less intensity”.
